Measurements published in PubChem BioAssay AID328 (DTP/NCI, 2004).
Values joined by “and” are separate entries in the source; they are usually repeats but may differ in a detail not shown here. Equal entries are not always repeated. Inconclusive results and toxic doses are left out.

Test system: BDF1 mice, P388 leukemia ip, median survival T/C
Experiment: NCI In Vivo Anticancer Drug Screen. Data for tumor model P388 Leukemia (intraperitoneal) in B6D2F1 (BDF1) mice
Conditions: endpoint: median survival time, higher = longer survival
Outline: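 Compound-treated tumour-bearing mice were compared with vehicle-treated controls. Survival was recorded, and the value is the treated-group measurement divided by the control-group measurement (T/C).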

[1] = dose: 50.0 mg/kg/injection, schedule: Q01DX009 (ip), vehicle: Klucel (hydroxypropylcellulose) (HPC)
[2] = dose: 100.0 mg/kg/injection, schedule: Q01DX009 (ip), vehicle: Klucel (hydroxypropylcellulose) (HPC)
[3] = dose: 50.0 mg/kg/injection, schedule: Q01DX009 (ip), vehicle: saline with Tween-80
[4] = dose: 100.0 mg/kg/injection, schedule: Q01DX009 (ip), vehicle: saline with Tween-80
[5] = dose: 200.0 mg/kg/injection, schedule: Q01DX009 (ip), vehicle: saline with Tween-80
[6] = dose: 50.0 mg/kg/injection, schedule: Q01DX009 (ip), vehicle: saline
[7] = dose: 100.0 mg/kg/injection, schedule: Q01DX009 (ip), vehicle: saline
[8] = dose: 100.0 mg/kg/injection, schedule: Q04DX003 (ip), vehicle: saline
[9] = dose: 200.0 mg/kg/injection, schedule: Q01DX009 (ip), vehicle: saline
[10] = dose: 200.0 mg/kg/injection, schedule: Q04DX003 (ip), vehicle: saline
[11] = dose: 400.0 mg/kg/injection, schedule: Q04DX003 (ip), vehicle: saline
[12] = dose: 100.0 mg/kg/injection, schedule: Q04DX003 (ip), vehicle: Klucel (hydroxypropylcellulose) (HPC)
[13] = dose: 200.0 mg/kg/injection, schedule: Q04DX003 (ip), vehicle: Klucel (hydroxypropylcellulose) (HPC)

With `O=S(=O)(NC(=S)Nc1ccc(Cl)cc1)c1ccccc1` the T/C [1] was 113 % of control, the T/C [2] was 118 % of control and the T/C (dose: 150.0 mg/kg/injection, schedule: Q04DX003 (ip), vehicle: Klucel (hydroxypropylcellulose) (HPC)) was 113 % of control. The T/C (dose: 225.0 mg/kg/injection, schedule: Q04DX003 (ip), vehicle: Klucel (hydroxypropylcellulose) (HPC)) was 117 % of control and the T/C (dose: 335.0 mg/kg/injection, schedule: Q04DX003 (ip), vehicle: Klucel (hydroxypropylcellulose) (HPC)) was 113 % of control.
With `COc1cc(OC)cc(C2=NNc3n[nH]c(=S)n3N2)c1` the T/C (dose: 100.0 mg/kg/injection, schedule: Q04DX003 (ip), vehicle: saline with Tween-80) was 100 % of control, the T/C (dose: 200.0 mg/kg/injection, schedule: Q04DX003 (ip), vehicle: saline with Tween-80) was 95 % of control and the T/C (dose: 400.0 mg/kg/injection, schedule: Q04DX003 (ip), vehicle: saline with Tween-80) was 100 % of control.
In the case of `CSCCC1NC(=O)C(/C(C)=N\NC(N)=O)=C1O` (stereo not given), the T/C [3] was 108 % of control, the T/C [4] was 115 % of control and the T/C [5] was 92 % of control.
In the case of `CC(C)(N)COS(=O)(=O)O`, the T/C [6] was 100 % of control, the T/C [7] was 90 % of control and 100 % of control and the T/C [8] was 100 % of control. The T/C [9] was 95 % of control, the T/C [10] was 100 % of control and the T/C (dose: 400.0 mg/kg/injection, schedule: Q01DX009 (ip), vehicle: saline) was 100 % of control. For the same compound, the T/C [11] was 100 % of control.
With `CS(=O)CC(O)(c1ccccc1)c1cccs1` (stereo not given) the T/C [3] was 100 % of control, the T/C [4] was 93 % of control and the T/C [5] was 100 % of control.
In the case of `O=C(/C=C/c1ccc2c(c1)OCO2)c1ccccc1`, the T/C [1] was 114 % of control and 105 % of control, the T/C [2] was 112 % of control and 100 % of control and the T/C [12] was 104 % of control. The T/C (dose: 200.0 mg/kg/injection, schedule: Q01DX009 (ip), vehicle: Klucel (hydroxypropylcellulose) (HPC)) was 112 % of control, the T/C [13] was 100 % of control and the T/C (dose: 400.0 mg/kg/injection, schedule: Q04DX003 (ip), vehicle: Klucel (hydroxypropylcellulose) (HPC)) was 95 % of control.
`O=C(O)c1cc(-c2ccc(Cl)cc2)nc2c(Cl)cccc12` was tested, and the T/C [1] was 100 % of control, the T/C (dose: 50.0 mg/kg/injection, schedule: Q04DX003 (ip), vehicle: Klucel (hydroxypropylcellulose) (HPC)) was 91 % of control and the T/C [2] was 100 % of control. For the same compound, the T/C [12] was 86 % of control and the T/C [13] was 86 % of control.
`CCCCCCCCNC(=O)C1OC(n2cnc3c(N)ncnc32)C(O)C1O` (stereo not given) was tested, and the T/C (dose: 25.0 mg/kg/injection, schedule: Q01DX009 (ip), vehicle: saline) was 95 % of control, the T/C [6] was 90 % of control and the T/C [7] was 95 % of control and 105 % of control. For the same compound, the T/C [8] was 95 % of control, the T/C [9] was 90 % of control and 109 % of control and the T/C [10] was 105 % of control. The T/C [11] was 90 % of control.
With `Cc1c(CNc2ccc(C(=O)NC(CC(=O)O)C(=O)O)cc2)ccc2nc(N)nc(N)c12` (stereo not given) the T/C (dose: 6.25 mg/kg/injection, schedule: Q01DX009 (ip), vehicle: saline) was 100 % of control, the T/C (dose: 12.5 mg/kg/injection, schedule: Q01DX009 (ip), vehicle: saline) was 90 % of control and the T/C (dose: 16.5 mg/kg/injection, schedule: Q04DX003 (ip), vehicle: saline with Tween-80) was 254 % of control. For the same compound, the T/C (dose: 25.0 mg/kg/injection, schedule: Q04DX003 (ip), vehicle: saline with Tween-80) was 272 % of control and the T/C (dose: 37.5 mg/kg/injection, schedule: Q04DX003 (ip), vehicle: saline with Tween-80) was 104 % of control.
With `NC(=O)c1cc([N+](=O)[O-])ccc1N` the T/C (dose: 100.0 mg/kg/injection, schedule: Q04DX003 (ip), vehicle: saline sonified) was 115 % of control, the T/C (dose: 200.0 mg/kg/injection, schedule: Q04DX003 (ip), vehicle: saline sonified) was 110 % of control and the T/C (dose: 400.0 mg/kg/injection, schedule: Q04DX003 (ip), vehicle: saline sonified) was 120 % of control.
`Oc1ccc2ccccc2c1N=Nc1ccc(F)cc1` was tested, and the T/C [4] was 100 % of control, the T/C [5] was 90 % of control and the T/C (dose: 400.0 mg/kg/injection, schedule: Q01DX009 (ip), vehicle: saline with Tween-80) was 95 % of control.
